Measured values from patent US6878742B2, “Heterocyclic sulfonamide inhibitors of beta amyloid production” (Wyeth, priority 2000, dated 2005).
Several values for one entry are separate records, joined by “and”; a condition that tells them apart may be missing. Identical values can stand only once.

Test system: amyloid precursor protein (APP) proteolysis
Assay: Repressor Release Assay (RRA)
Type: cell-based
Conditions: luciferase activity over diluent control; for fold induction at 20 µg/mL / fold induction at 10 µg/mL: read-out: APPI Fold Increase
Method: The beta amyloid inhibitory activity of many of the compounds of the present invention has been determined using the Repressor Release Assay (RRA). See, Table 23 below. A compound is considered active in RRA if it leads to at least a 1.5 fold increase in luciferase activity at 20 μM and is non-toxic.
The compounds generated as described in Examples 1 through 220 were tested in the RRA in accordance with published techniques [Shuey, D. J., Sheiffele, P., Jones, D., Cockett, M. I., and Quinet, E. M. (1999), “Repressor release: a useful tool for monitoring amyloid precursor protein (APP) proteolysis in mammalian cells”, Society for Neuroscience Abstracts, Vol. 25, 29th Annual Meeting of Society for Neuroscience, Miami Beach, Fla., Oct. 23-28, 1999]. Briefly, this assay is performed as follows.
CHO-K1 cells are cultured in whole DMEM media (DMEM—High Glucose with 10% fetal bovine serum, 1% Non-essential Amino Acids, and 1% Penicillin-Streptomycin) at 37° C. with 5% CO2. Two million cells are plated into 10-cm dishes 24 hrs prior to transfection.
Transient transfections are completed as recommended by Gibco BRL using their Lipofectamine Plus system. First, 6 μg of pRSVO-luc and 6 μg of APP-lacI construct DNA are added to 460 μL Opti-Mem transfection media and incubated with 30 μL Plus reagent for 15 minutes. Then, a lipid mixture of 40 μL Lipofectamine reagent and 460 μL Opti-Mem transfection media is incubated with the DNA-Plus reagent mixture for 15 minutes. During the DNA-lipid incubation, the CHO-K1 cells are washed once and covered in 5.0 mL DMEM media without Penicillin-Streptomycin. The DNA-lipid preparation is then layered onto these cells and incubated at 37° C. overnight.
One and one half million transfected cells per well (100 μL total volume) are plated into sterile, opaque Packard 96-well Cultur-Plates in clear DMEM whole media (DMEM—without phenol red) and incubated at 37° C. with 5% CO2 for 3-5 hours.
Compounds are diluted using two different protocols; one protocol is used for compounds supplied neat (weighed powder in vial) and the other protocol is used for compounds supplied in solution (20 mM in DMSO in 96-well plates). For both protocols, 25 mM Hepes and 25 mM Hepes/1% DMSO are prepared fresh to be used as diluent. The Hepes/DMSO is used as the diluent control on all experimental plates.
The following table depicts the steps for compound dilution (please note that the last step is the addition of compound to cells/media in tissue culture plate):
Because some compounds arrive in 96-well format at 20 mM, the following represents the protocol for their dilution (note that an average molecular weight of these compounds was used to calculate these dilutions and as above, the last step is the addition of compound to cells/media in tissue culture plate):
Once compounds are diluted, they are applied in duplicate on cells in tissue culture plates (prepared above). Cells are incubated with compound at 37° C. with 5% CO2 for an additional 36-48 hours.
Luciferase assays (LucLite reagent, Packard) are performed and are read on a Packard TopCount instrument. Media is removed from each 96-well plate and replaced with 100 μL PBS per well (with Mg^2+ and Ca^2+). An equal volume (100 μL) of the LucLite lysis/substrate buffer is added to each well and the plates are sealed and mixed in the dark on a rotary shaker for 15-30 minutes at room temperature. Luciferase readings are then taken on the TopCount instrument. Measurements are expressed as relative light units (RLU) and are calculated and analyzed in MS Excel as follows.
A compound is considered active in RRA if it leads to at least a 1.5 fold increase in luciferase activity at 20 μM and is non-toxic, as determined by loss of signal (≦0.75 fold increase). Fold increase is the amount of luciferase activity (measured in relative light units) over diluent control. SEM represents the standard error of the mean for fold increase (not shown).

CC[C@@H](c1ccc(-c2ccccc2)cc1)[C@@H](CO)NS(=O)(=O)c1ccc(Br)s1 [Example 76, N-[(1S,2S)-2-[1,1′-biphenyl]-4-yl-1-(hydroxymethyl)butyl]-5-bromothiophene-2-sulfonamide]
fold induction at 20 µg/mL (Conc 20 μg/mL): 3.2

CC[C@@H](C)[C@@H](CO)NS(=O)(=O)c1ccc(Cl)s1 [Example 16]
APPI Fold Increase (Conc 0.3 μg/mL): 1.7 fold | APPI Fold Increase (Conc 1 μg/mL): 1.9 fold and 2.56 fold | APPI Fold Increase (Conc 3 μg/mL): 3.1 fold and 4.47 fold | APPI Fold Increase (Conc 10 μg/mL): 4.19 fold and 3.2 fold

CCNC(C)(CO)CNS(=O)(=O)c1ccc(Cl)s1 (stereo not shown) [Example 80]
APPI Fold Increase (Conc 20 μg/mL): 1.8 fold

O=S(=O)(N[C@H](CO)C1CCC(OCc2ccccc2)CC1)c1ccc(Cl)s1 (stereo partly drawn) [Example 202, N-{(S)-1-[4-(benzyloxy)cyclohexyl]-2-hydroxyethyl}-5-chlorothiophene-2-sulfonamide]
fold induction at 20 µg/mL (Conc 20 μg/mL): 2

CCCCCC[C@@H](CCCCC)[C@@H](CO)NS(=O)(=O)c1ccc(Br)s1 [Example 65, 5-bromo-N-[(1S,2R)-1-(hydroxymethyl)-2-pentyloctyl]thiophene-2-sulfonamide]
fold induction at 20 µg/mL (Conc 20 μg/mL): 1.9

O=S(=O)(NC1(CO)Cc2ccccc2C1)c1ccc(Br)s1 [Example 183]
APPI Fold Increase (Conc 20 μg/mL): 3.7 fold

CC(C)CC(CO)NS(=O)(=O)c1ccc(Cl)s1 (stereo not shown) [Example 90]
APPI Fold Increase (Conc 3 μg/mL): 1.74 fold | APPI Fold Increase (Conc 10 μg/mL): 3.82 fold | APPI Fold Increase (Conc 20 μg/mL): 3.6 fold

CCC(CC)[C@@H](C=O)NS(=O)(=O)c1ccc(Cl)s1 [Example 221A, 5-Chloro-N-[(S)-2-ethyl-1-formylbutyl]thiophene-2-sulfonamide]
fold induction at 20 µg/mL (Conc 20 μg/mL): 4.9

CCCCCC[C@@H](C)[C@@H](CO)NS(=O)(=O)c1ccc(Cl)s1 [Example 29, 5-chloro-N-[(1S,2R)-1-(hydroxymethyl)-2-methyloctyl]thiophene-2-sulfonamide]
fold induction at 20 µg/mL (Conc 20 μg/mL): 2.6

COc1ccc([C@@H](C)[C@@H](CO)NS(=O)(=O)c2ccc(Cl)s2)cc1 [Example 28, 5-chloro-N-[(1S,2R)-1-(hydroxymethyl)-2-(4-methoxyphenyl)propyl]thiophene-2-sulfonamide]
fold induction at 20 µg/mL (Conc 20 μg/mL): 7

CCC(C)C(NS(=O)(=O)c1ccc(Cl)s1)C(O)CC(C)C (mixture of isomers) [Example 126]
APPI Fold Increase (Conc 10 μg/mL): 5.25 fold and 3.31 fold

O=S(=O)(NC1(CO)CCCC1)c1ccc(Cl)s1 [Example 94]
APPI Fold Increase (Conc 10 μg/mL): 2.4 fold

CCC[C@H](CC(C)C)[C@@H](CO)NS(=O)(=O)c1ccc(Cl)s1 [Example 35, 5-chloro-N-[(1S,2R)-1-(hydroxymethyl)-4-methyl-2-propylpentyl]thiophene-2-sulfonamide]
fold induction at 20 µg/mL (Conc 20 μg/mL): 3.7

CC[C@H](C)[C@H](NS(=O)(=O)c1ccc(Cl)s1)C(O)c1ccc(OC)cc1 (stereo partly drawn) [Example 134, 5-chloro-N-{(S,S)-1-[hydroxy(4-methoxyphenyl)methyl]-2-methylbutyl}thiophene-2-sulfonamide]
fold induction at 10 µg/mL (Conc 10 μg/mL): 2.42

C/C=C(\C)C(O)(/C(C)=C/C)[C@@H](NS(=O)(=O)c1ccc(Cl)s1)[C@@H](C)CC (stereo partly drawn) [Example 170, 5-chloro-N-{(S,E)-2-hydroxy-3-methyl-2-[(E)-1-methylprop-1-enyl]-1-[(S)-1-methylpropyl]pent-3-enyl}thiophene-2-sulfonamide]
fold induction at 10 µg/mL (Conc 10 μg/mL): 1.95

CC(C)(C)[C@@H](CO)NS(=O)(=O)c1ccc(Br)s1 [Example 113]
APPI Fold Increase (Conc 10 μg/mL): 2.86 fold

CCC(NCCO)[C@@H](CO)NS(=O)(=O)c1ccc(Cl)s1 (stereo partly drawn) [Example 82, 5-chloro-N-[(1S)-2-[(2-hydroxyethyl)amino]-1-(hydroxymethyl)butyl]-2-thiophenesulfonamide]
fold induction at 20 µg/mL (Conc 20 μg/mL): 2.2
